Laboratory results as given in patent US20230117034A1, “PYRAZOLOTRIAZINES” (Bayer Aktiengesellschaft, priority 2019, published 2023).

How the values were obtained:
[1] = system: BRCA1 mRNA expression in MDA-MB-231 cells; experiment: qRT-PCR assay: BRCA1 mRNA expression in MDA-MB-231; type: cell-based, human; details: Homo sapiens, MDA-MB-231, Inhibition of BRCA1 mRNA expression in MDA-MB-231 cells; median; read-out: RTqPCR-MDA-MB-231, IC50, BRCA1 (median)
Summary of the method: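 Seed 200,000 cells/well; 24 h later add compound, continuous exposure 24 h; extract RNA, 600 ng to cDNA; RT-qPCR, normalised to GAPDH.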

[2] = system: MDA-MB-231, human breast cancer cells; experiment: Proliferation assay MDA-MB-231 (crystal violet, 4 days); type: cell-based; details: Homo sapiens, MDA-MB-231, 96 h, MDA-MB-231 cells, median, read-out: Prolif-MDA MB-231, IC50-[mol/l] (median)
Summary of the method: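 IC50 from a 4-parameter fit of crystal violet absorbance (595 nm), scaled between a day-0 plate (0%) and untreated wells (100%). Cells grown in 10% FCS medium were exposed to test substances at 0.01-10 µmol/L for 4 days, 0.1% DMSO final.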

CDK9/CycT1 = target: T1, CDK9/CycT1 (Homo sapiens, UniProt P50750); experiment: CDK9/CycT1 high ATP kinase assay (TR-FRET, 2 mM ATP); type: biochemical; details: 2 mM ATP (high ATP); median; read-out: CDK9/CyclinT1, 2 mM ATP (high ATP), IC50 (median)
T1 construct: Recombinant full-length His-tagged human CDK9 and CycT1; purchased Life Technologies PV4131; host or cells: insect cells
T1 sequence (P50750 whole entry): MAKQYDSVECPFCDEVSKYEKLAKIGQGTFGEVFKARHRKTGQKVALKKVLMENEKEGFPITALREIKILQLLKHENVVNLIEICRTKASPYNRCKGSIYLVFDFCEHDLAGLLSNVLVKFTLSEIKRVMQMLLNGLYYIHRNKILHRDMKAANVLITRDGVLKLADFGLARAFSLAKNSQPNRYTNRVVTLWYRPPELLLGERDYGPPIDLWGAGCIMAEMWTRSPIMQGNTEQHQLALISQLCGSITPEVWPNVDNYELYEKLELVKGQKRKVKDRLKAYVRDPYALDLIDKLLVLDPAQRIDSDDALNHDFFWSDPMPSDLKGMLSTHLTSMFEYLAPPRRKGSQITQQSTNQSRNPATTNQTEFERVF
T1 sequence (O60563 whole entry partner): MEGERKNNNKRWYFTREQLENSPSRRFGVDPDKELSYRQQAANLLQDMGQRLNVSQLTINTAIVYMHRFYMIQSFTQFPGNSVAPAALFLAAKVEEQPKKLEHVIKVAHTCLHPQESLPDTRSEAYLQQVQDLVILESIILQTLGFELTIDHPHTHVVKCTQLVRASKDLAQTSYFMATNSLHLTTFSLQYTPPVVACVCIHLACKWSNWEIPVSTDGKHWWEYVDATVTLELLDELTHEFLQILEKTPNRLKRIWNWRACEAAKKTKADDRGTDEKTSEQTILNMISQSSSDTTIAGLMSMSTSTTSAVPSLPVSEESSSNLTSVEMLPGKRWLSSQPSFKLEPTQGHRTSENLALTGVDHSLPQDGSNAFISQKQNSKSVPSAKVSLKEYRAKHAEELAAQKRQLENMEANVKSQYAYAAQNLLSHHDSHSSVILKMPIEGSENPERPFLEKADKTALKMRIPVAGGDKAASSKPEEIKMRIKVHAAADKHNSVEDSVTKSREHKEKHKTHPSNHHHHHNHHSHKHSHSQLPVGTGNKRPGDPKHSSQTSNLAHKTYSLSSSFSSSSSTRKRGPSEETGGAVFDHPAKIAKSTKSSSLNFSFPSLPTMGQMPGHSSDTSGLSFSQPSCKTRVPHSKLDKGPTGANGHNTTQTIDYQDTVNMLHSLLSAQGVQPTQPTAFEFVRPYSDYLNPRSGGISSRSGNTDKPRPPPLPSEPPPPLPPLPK
Summary of the method: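 Full-length His-tagged human CDK9/CycT1 (insect cell, ~0.5 μg/mL) preincubated 15 min at 22 °C with compound in Tris pH 8.0, MgCl2, DTT buffer before reaction with biotinylated peptide substrate at high ATP (2 mM).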

SMILES | IC50 [1] | IC50 [2] | IC50 (CDK9/CycT1)
N#Cc1cccc(-c2c[nH]c(CNc3nc(N4CCOCC4)nc4c(Br)cnn34)n2)c1 [Example 42, 3-[2-({[8-bromo-2-(morpholin-4-yl)pyrazolo[1,5-a][1,3,5]triazin-4-yl]amino}methyl)-1H-imidazol-4-yl]benzonitrile] | 3.4 nM | 5.74 nM | 937 nM
FC(F)Cc1cnn2c(NCc3nc4ccccc4[nH]3)nc(N3CCOCC3)nc12.O=C(O)C(F)(F)F [Example 444, trifluoroacetic acid N-[(1H-benzimidazol-2-yl)methyl]-8-(2,2-difluoroethyl)-2-(morpholin-4-yl)pyrazolo[1,5-a][1,3,5]triazin-4-amine] | 51.5 nM | 69.1 nM | > 20000 nM
CCc1cnn2c(NCc3nc4c(F)c(F)ccc4[nH]3)nc(N3CCOCC3)nc12 [Example 432, N-[(4,5-difluoro-1H-benzimidazol-2-yl)methyl]-8-ethyl-2-(morpholin-4-yl)pyrazolo[1,5-a][1,3,5]triazin-4-amine] | 1.76 nM | 8.53 nM | 15700 nM
CC(C)c1cnn2c(NCc3nnc(-c4ccccc4)[nH]3)nc(N3CCOCC3)nc12 [Example 33, 2-(morpholin-4-yl)-N-[(5-phenyl-4H-1,2,4-triazol-3-yl)methyl]-8-(propan-2-yl)pyrazolo[1,5-a][1,3,5]triazin-4-amine] | 23.7 nM | 290 nM | 14100 nM

More lines, in order of falling IC50 [1], values ahead:

IC50 [1] | IC50 [2] | IC50 (CDK9/CycT1) | SMILES
82.7 nM | 298 nM | > 20000 nM | Fc1ccc2[nH]c(CNc3nc(N4CCOCC4)nc4c(-c5nccs5)cnn34)nc2c1F [Example 413, N-[(4,5-difluoro-1H-benzimidazol-2-yl)methyl]-2-(morpholin-4-yl)-8-(1,3-thiazol-2-yl)pyrazolo [1,5-a][1,3,5]triazin-4-amine]
45 nM | 113 nM | 4230 nM | FC(F)(F)c1cnn2c(NCc3nnc(-c4ccccc4)[nH]3)nc(N3CCOCC3)nc12 [Example 427, 2-(morpholin-4-yl)-N-[(5-phenyl-4H-1,2,4-triazol-3-yl)methyl]-8-(trifluoromethyl)pyrazolo[1,5-a][1,3,5]triazin-4-amine]
11.4 nM | 19.8 nM | > 20000 nM | Cc1cnn2c(NCc3nc4c(F)c(F)ccc4[nH]3)nc(N3CCN(C)CC3)nc12 [Example 394, N-[(4,5-difluoro-1H-benzimidazol-2-yl)methyl]-8-methyl-2-(4-methylpiperazin-1-yl)pyrazolo[1,5-a][1,3,5]triazin-4-amine]
